Measurements taken from BindingDB's records for doi:10.1016/j.bmcl.2006.04.011 (Ambrilia Biopharma, 2006).

Biological target: T1, Dimer of Gag-Pol polyprotein [501-599] (Human immunodeficiency virus 1, UniProt P03367)
T1 construct: 501-599
Test: Protease Inhibition Assay
Details: not given
Procedure: HIV-1 protease activity was measured by a continuous fluorometric assay. The proteolytic activity can be monitored by the increase in fluorescence intensity, and the protease products were analyzed by HPLC. IC50 values were determined from a dose-response curve, whereas Ki values were obtained by fitting initial rates to a tight-binding inhibition equation.

Row | Compound | IC50 [nM] | Ki [nM]
1 | CC(C)CN(C(CO)CCCCNC(=O)[C@@H](NC(=O)c1ccccn1)C(c1ccccc1)c1ccccc1)S(=O)(=O)c1ccc(N)cc1 (stereo partly drawn) [(2S)-N-[(5R)-5-[(4-aminobenzene)(2-methylpropyl)sulfonamido]-6-hydroxyhexyl]-3,3-diphenyl-2-(pyridin-2-ylformamido)propanamide] | 0.46 | 0.44
2 | CC(C)CN(C(CO)CCCCNC(=O)[C@@H](NC(=O)c1cccnc1)C(c1ccccc1)c1ccccc1)S(=O)(=O)c1ccc(N)cc1 (stereo partly drawn) [(2S)-N-[(5R)-5-[(4-aminobenzene)(2-methylpropyl)sulfonamido]-6-hydroxyhexyl]-3,3-diphenyl-2-(pyridin-3-ylformamido)propanamide] | 0.68 | 0.55
3 | Cc1ncccc1C(=O)N[C@H](C(=O)NCCCCC(CO)N(CC(C)C)S(=O)(=O)c1ccc(N)cc1)C(c1ccccc1)c1ccccc1 (stereo partly drawn) [(2S)-N-[(5R)-5-[(4-aminobenzene)(2-methylpropyl)sulfonamido]-6-hydroxyhexyl]-2-[(2-methylpyridin-3-yl)formamido]-3,3-diphenylpropanamide] | 0.4 | 0.4
4 | CC(C)CN(C(CO)CCCCNC(=O)[C@@H](NC(=O)c1ccccc1O)C(c1ccccc1)c1ccccc1)S(=O)(=O)c1ccc(N)cc1 (stereo partly drawn) [(2S)-N-[(5R)-5-[(4-aminobenzene)(2-methylpropyl)sulfonamido]-6-hydroxyhexyl]-2-[(2-hydroxyphenyl)formamido]-3,3-diphenylpropanamide] | 0.63 | 0.58
5 | CC(C)CN(C(CO)CCCCNC(=O)[C@@H](NC(=O)C1CCCCC1)C(c1ccccc1)c1ccccc1)S(=O)(=O)c1ccc(N)cc1 (stereo partly drawn) [(2S)-N-[(5R)-5-[(4-aminobenzene)(2-methylpropyl)sulfonamido]-6-hydroxyhexyl]-2-(cyclohexylformamido)-3,3-diphenylpropanamide] | < 3.8 | –
6 | COc1cc(C(=O)N[C@H](C(=O)NCCCCC(CO)N(CC(C)C)S(=O)(=O)c2ccc(N)cc2)C(c2ccccc2)c2ccccc2)ccc1O (stereo partly drawn) [(2S)-N-[(5R)-5-[(4-aminobenzene)(2-methylpropyl)sulfonamido]-6-hydroxyhexyl]-2-[(4-hydroxy-3-methoxyphenyl)formamido]-3,3-diphenylpropanamide] | 0.5 | 0.45
7 | CC(C)CN(C(CO)CCCCNC(=O)[C@@H](NC(=O)c1ncccc1O)C(c1ccccc1)c1ccccc1)S(=O)(=O)c1ccc(N)cc1 (stereo partly drawn) [(2S)-N-[(5R)-5-[(4-aminobenzene)(2-methylpropyl)sulfonamido]-6-hydroxyhexyl]-2-[(3-hydroxypyridin-2-yl)formamido]-3,3-diphenylpropanamide] | 0.9 | 0.7
8 | CC(C)CN(C(CO)CCCCNC(=O)[C@@H](NC(=O)c1ccc(N)nc1)C(c1ccccc1)c1ccccc1)S(=O)(=O)c1ccc(N)cc1 (stereo partly drawn) [(2S)-N-[(5R)-5-[(4-aminobenzene)(2-methylpropyl)sulfonamido]-6-hydroxyhexyl]-2-[(6-aminopyridin-3-yl)formamido]-3,3-diphenylpropanamide] | 0.4 | 0.5
9 | CC(C)CN(C(CO)CCCCNC(=O)[C@@H](NC(=O)c1ccncc1)C(c1ccccc1)c1ccccc1)S(=O)(=O)c1ccc(N)cc1 (stereo partly drawn) [(2S)-N-[(5R)-5-[(4-aminobenzene)(2-methylpropyl)sulfonamido]-6-hydroxyhexyl]-3,3-diphenyl-2-(pyridin-4-ylformamido)propanamide] | 0.65 | 0.66
10 | Cc1ccc(C(=O)N[C@H](C(=O)NCCCCC(CO)N(CC(C)C)S(=O)(=O)c2ccc(N)cc2)C(c2ccccc2)c2ccccc2)cn1 (stereo partly drawn) [(2S)-N-[(5R)-5-[(4-aminobenzene)(2-methylpropyl)sulfonamido]-6-hydroxyhexyl]-2-[(6-methylpyridin-3-yl)formamido]-3,3-diphenylpropanamide] | 0.4 | 0.5
11 | CC(C)CN(C(CO)CCCCNC(=O)[C@@H](NC(=O)OCc1cccnc1)C(c1ccccc1)c1ccccc1)S(=O)(=O)c1ccc(N)cc1 (stereo partly drawn) [pyridin-3-ylmethyl N-[(1S)-1-{[(5R)-5-[(4-aminobenzene)(2-methylpropyl)sulfonamido]-6-hydroxyhexyl]carbamoyl}-2,2-diphenylethyl]carbamate] | 0.48 | 0.36
12 | CC(C)CN(C(CO)CCCCNC(=O)[C@@H](NC(=O)c1cccc(O)c1)C(c1ccccc1)c1ccccc1)S(=O)(=O)c1ccc(N)cc1 (stereo partly drawn) [(2S)-N-[(5R)-5-[(4-aminobenzene)(2-methylpropyl)sulfonamido]-6-hydroxyhexyl]-2-[(3-hydroxyphenyl)formamido]-3,3-diphenylpropanamide] | 0.4 | 0.4
13 | CC(C)CN(C(CO)CCCCNC(=O)[C@@H](NC(=O)Cc1cccnc1)C(c1ccccc1)c1ccccc1)S(=O)(=O)c1ccc(N)cc1 (stereo partly drawn) [(2S)-N-[(5R)-5-[(4-aminobenzene)(2-methylpropyl)sulfonamido]-6-hydroxyhexyl]-3,3-diphenyl-2-[1-(pyridin-3-yl)acetamido]propanamide] | 0.24 | 0.34
14 | CC(C)CN(C(CO)CCCCNC(=O)[C@@H](NC(=O)OCc1ccccn1)C(c1ccccc1)c1ccccc1)S(=O)(=O)c1ccc(N)cc1 (stereo partly drawn) [pyridin-2-ylmethyl N-[(1S)-1-{[(5R)-5-[(4-aminobenzene)(2-methylpropyl)sulfonamido]-6-hydroxyhexyl]carbamoyl}-2,2-diphenylethyl]carbamate] | 0.12 | 0.4
15 | CC(C)CN(C(CO)CCCCNC(=O)[C@@H](NC(=O)c1ccc[nH]1)C(c1ccccc1)c1ccccc1)S(=O)(=O)c1ccc(N)cc1 (stereo partly drawn) [(2S)-N-[(5R)-5-[(4-aminobenzene)(2-methylpropyl)sulfonamido]-6-hydroxyhexyl]-3,3-diphenyl-2-(1H-pyrrol-2-ylformamido)propanamide] | 0.43 | 0.47
16 | CC(C)CN(C(CO)CCCCNC(=O)[C@@H](NC(=O)OC(C)(C)C)C(c1ccccc1)c1ccccc1)S(=O)(=O)c1ccc(N)cc1 (stereo partly drawn) [tert-butyl N-[(1S)-1-{[(5R)-5-[(4-aminobenzene)(2-methylpropyl)sulfonamido]-6-hydroxyhexyl]carbamoyl}-2,2-diphenylethyl]carbamate] | 0.4 | 0.5
17 | CC(C)CN(C(CO)CCCCNC(=O)[C@@H](NC(=O)N1CCOCC1)C(c1ccccc1)c1ccccc1)S(=O)(=O)c1ccc(N)cc1 (stereo partly drawn) [(2S)-N-[(5R)-5-[(4-aminobenzene)(2-methylpropyl)sulfonamido]-6-hydroxyhexyl]-2-(morpholin-4-ylcarbonylamino)-3,3-diphenylpropanamide] | 0.51 | 0.55
18 | CC(C)CN(C(CO)CCCCNC(=O)[C@@H](NC(=O)c1ccc([N+](=O)[O-])c(O)c1)C(c1ccccc1)c1ccccc1)S(=O)(=O)c1ccc(N)cc1 (stereo partly drawn) [(2S)-N-[(5R)-5-[(4-aminobenzene)(2-methylpropyl)sulfonamido]-6-hydroxyhexyl]-2-[(3-hydroxy-4-nitrophenyl)formamido]-3,3-diphenylpropanamide] | 0.33 | 0.33
19 | CC(C)CN(C(CO)CCCCNC(=O)[C@@H](NC(=O)OCc1ccncc1)C(c1ccccc1)c1ccccc1)S(=O)(=O)c1ccc(N)cc1 (stereo partly drawn) [pyridin-4-ylmethyl N-[(1S)-1-{[(5R)-5-[(4-aminobenzene)(2-methylpropyl)sulfonamido]-6-hydroxyhexyl]carbamoyl}-2,2-diphenylethyl]carbamate] | 0.39 | 0.02
20 | CC(C)CN(C(CO)CCCCNC(=O)[C@@H](NC(=O)c1ccc(=O)[nH]c1)C(c1ccccc1)c1ccccc1)S(=O)(=O)c1ccc(N)cc1 (stereo partly drawn) [(2S)-N-[(5R)-5-[(4-aminobenzene)(2-methylpropyl)sulfonamido]-6-hydroxyhexyl]-2-[(6-hydroxypyridin-3-yl)formamido]-3,3-diphenylpropanamide] | 0.5 | 0.4
21 | CC(C)CN(C(CO)CCCCNC(=O)[C@@H](N)C(c1ccccc1)c1ccccc1)S(=O)(=O)c1ccc(N)cc1 (stereo partly drawn) [(2S)-2-amino-N-[(5R)-5-[(4-aminobenzene)(2-methylpropyl)sulfonamido]-6-hydroxyhexyl]-3,3-diphenylpropanamide] | 0.5 | 0.56

Same assay, conditions: pH 4.7; 30 °C

Row | Compound | IC50 [nM]
22 | COC(=O)N[C@@H](CCc1ccccc1)C(=O)NCCCCC(CO)N(CC(C)C)S(=O)(=O)c1ccc(N)cc1 (stereo partly drawn) [methyl N-[(1S)-1-{[(5R)-5-[(4-aminobenzene)(2-methylpropyl)sulfonamido]-6-hydroxyhexyl]carbamoyl}-3-phenylpropyl]carbamate] | 40
23 | COC(=O)N1Cc2ccccc2C=C1C(=O)NCCCCC(CO)N(CC(C)C)S(=O)(=O)c1ccc(N)cc1 (configuration not stated) [lysine sulfonamide analogue 8] | 130
24 | COC(=O)N[C@@H](Cc1ccccc1)C(=O)NCCCCC(CO)N(CC(C)C)S(=O)(=O)c1ccc(N)cc1 (stereo partly drawn) [methyl N-[(1S)-1-{[(5R)-5-[(4-aminobenzene)(2-methylpropyl)sulfonamido]-6-hydroxyhexyl]carbamoyl}-2-phenylethyl]carbamate] | 12
25 | COC(=O)N[C@H](C(=O)NCCCCC(CO)N(CC(C)C)S(=O)(=O)c1ccc(N)cc1)c1ccccc1 (stereo partly drawn) [methyl N-[(S)-{[(5R)-5-[(4-aminobenzene)(2-methylpropyl)sulfonamido]-6-hydroxyhexyl]carbamoyl}(phenyl)methyl]carbamate] | > 300
26 | COC(=O)N[C@@H](Cc1ccc2ccccc2c1)C(=O)NCCCCC(CO)N(CC(C)C)S(=O)(=O)c1ccc(N)cc1 (stereo partly drawn) [methyl N-[(1S)-1-{[(5R)-5-[(4-aminobenzene)(2-methylpropyl)sulfonamido]-6-hydroxyhexyl]carbamoyl}-2-(naphthalen-2-yl)ethyl]carbamate] | 1.2
27 | COC(=O)N[C@@H](Cc1cccc2ccccc12)C(=O)NCCCCC(CO)N(CC(C)C)S(=O)(=O)c1ccc(N)cc1 (stereo partly drawn) [methyl N-[(1S)-1-{[(5R)-5-[(4-aminobenzene)(2-methylpropyl)sulfonamido]-6-hydroxyhexyl]carbamoyl}-2-(naphthalen-1-yl)ethyl]carbamate] | 1.2
